# Laboratory results as given in publication PMC5503984, “Characterisation of preproendothelin-1 derived peptides identifies Endothelin-Like Domain Peptide as a modulator of Endothelin-1” (Scientific Reports, 2017).
# Where no end group is shown, it is not given here.
# Columns and labels:
# [1] = system: human aortic endothelial cells; experiment: Secretion of ET-1 and proET-1 peptides from cultured human aortic endothelial cells (sandwich ELISA); format: cell-based; details: 6 h incubation
# Source text: To confirm that proET-1 peptides are a reproducible index of ET-1 synthesis we compared the level of peptide production in cultured human aortic endothelial cells under conditions known to increase or decrease ET-1 expression. These experiments also confirmed that early passage human endothelial cells from primary cultures produce the same peptides with the stoichiometric relationship expected for proET-1 processing.
# Figure 3 Correlation between secretion of ET-1 and proET-1 peptides from human aortic endothelial cells. Confluent cultures were incubated for 6 h in basal medium alone, or with 1 mM phosphoramidon (PHA), 2.5 or 5 µg/ml apple procyanidin pentamer (AP-2.5, AP-5), 5 µg/ml grape seed extract (GSE), 10 ng/ml TNFα or 1 ng/ml TGFß. All peptides were measured using specific sandwich ELISAs, and converted to % basal release (A,B,C,E and G). Results are mean ± SD from 4 experiments. Significant differences were determined by ANOVA with Bonferroni correction for multiple comparisons (*P = < 0.05; ***P = < 0.001). (D,F) and (H) show correlations between secretion of ET-1 and the respective proET-1 peptides under the different incubation conditions (excluding data obtained with phosporamidon).
# Underlined sequences in Table 1 indicate peptide antigens used to raise specific antisera for sandwich immunoassays following previously described methodologies. Immunogens for ppET-1[93–109] and ppET-1[155–166] were prepared by conjugation via terminal Cys residues to maleimide groups on pre-treated carrier proteins. To enable conjugation of ppET-1[18–30], ppET-1[93–102] and ppET-1[169–186] by the maleimide methodology, synthetic peptides for these antigens included a C-terminal Cys-NH2 residue. Immunogens for ppET-1[42–50] and ppET-1[204–212] were prepared by glutaraldehyde conjugation to carrier protein[30]. For initial characterisation of conditioned media samples, rabbit antisera raised against ppET-1[42–50] and ppET-1[93–102] were used to establish radioimmunoassays for these peptide antigens. Subsequent investigations used sandwich ELISA methodologies with specific IgG purified from antisera using the respective peptide antigens (Table 1) coupled to SulfoLink Coupling Resin (Thermo Scientific/Pierce) or CNBr-Sepharose (GE Healthcare)[30]. Purified IgG for use as detection antibodies were biotinylated with NHS-LC-LC-biotin (Thermo Scientific/Pierce), and used for assay measurements with enhanced chemiluminescence.
# EA.hy 926 and A549 cell lines were grown in Dulbecco’s modified Eagle medium with 10% fetal bovine serum at 37 °C in a humidified CO2 incubator (8% CO2, 92% air) as previously described, [30]. Human aortic endothelial cells were passaged cells from primary cultures grown in endothelial cell basal medium with growth supplement (Cell Applications Inc.), and used when confluent to compare secretion of proET-1 peptides with ET-1. Purified apple procyanidin pentamer was from Asahi Breweries (Moriya, Ibaraki 302–0106, Japan), grape seed extract was form Polyphenolics (Madera, CA), TNFα and TGFβ were from R&D Systems.
# [2] = cited from earlier work
# Source text: The endothelin-like domain sequence is highly conserved with the first four Cys residues having identical spacing to ET-1 (Fig. 6)[18], [19]. There is also considerable sequence homology adjacent to the endothelin-like domain, which has been retained throughout mammalian evolution, such that human ppET-1[107–131] has 92% sequence identity with mouse ELDP and 88% with platypus over this sequence. […] However, choice of test conditions and pepti ...
# [3] = ET-1; cited from earlier work
# Source text: After intravenous injection NT-proET-1 was rapidly eliminated from the circulation (t½ < 20 s). Such rapid clearance indicates uptake or metabolism. ET-1 also has a short t½ (30–60 s)[42], [43], which is due primarily to clearance by endothelial ETB receptors in the pulmonary vasculature, [45], and to a lesser extent degradation by neutral endopeptidase 24.11, particularly in post capillary veins, [47]. In the absence of receptor-mediated clearance, the high disappearance rate of NT-proET-1 is likely due to peptidase activity in the circulation, particularly in the pulmonary circulatio ...
# [4] = RP-HPLC elution position of synthetic proET-1 peptides; format: physicochemical; details: ACE-5 C4 300 Å, 5 µm, 4.6 × 250 mm, 1 ml/min, 0.1% TFA – 10% solvent B (80% CH3CN with 0.1% TFA) over 2 min, then 10–30% B over 50 min, 1 min fractions, absorbance at 280 nm and immunoassay
# Experimental: Figure 2 Size exclusion chromatography of peptide precipitates from (A) EA.hy 926 and (B) A549 cell lines, (C) cation exchange chromatography of conditioned media from EA.hy 926, and HPLC characterisation of pro-ET-1 peptides from EA.hy 926 cells – (D) NT-proET-1, (E) ELDP and (F) CT-proET-1. (A) and (B) proendothelin-1 peptides from EA.hy 926 and A549 cell lines were subjected to size exclusion chromatography (column 1.6 × 100 cm, Sephadex G50 superfine) equilibrated at 4 °C with 0.1 M NaCl containing 0.01 M HCl. Fractions were subjected to immunoassay for ppET-1[42–50] (open circles) and ppET-1[93–102] (closed circles). Elution positions of adrenomedullin (ADM, M r 6029), big ET-1 (bET-1, M r 4283) and ET-1 (M r 2492) are indicated. […] ELDP (red columns) and CT-proET-1 (blue columns) were measured using immunoassays. […]
# ProET-1 peptides were subjected to reverse phase HPLC on C4 silica (15 µm, 300 Å pore, 1 × 25 cm; Jupiter® Phenomenex) with gradient elution at 2 ml/min: 0.1% TFA – 15% solvent B (80% CH3CN with 0.1% TFA) over 2 min, followed by 15–60% B over 45 min. […] Synthetic peptides were used to characterise elution positions of NT-proET-1, ELDP and CT-proET-1 on this second HPLC system by monitoring absorbance at 280 nm and immunoassay of fractions. […]
# [5] = Clearance of proET-1 peptides after i.v. bolus in anaesthetised rats; format: in vivo, rat; details: rat; for plasma level at 30 s as % of administered peptide, relative to estimates for dilution in circulating blood: 1 nmol/kg i.v., hypothetical maximum plasma concentration 23–35 pmol/ml; for level at time molar at 0.5 min: iv, anaesthetised male Wistar rats, bolus 1 nmol/kg i.v. of each peptide as a combined solution in 0.9% saline/0.1% BSA, arterial plasma, Luminex multiplex immunoassay, mean ± SD, read-out: plasma level 30 s after injection
# Experimental: To examine whether circulating half-lives influenced plasma levels of proET-1 peptides clearance rates were investigated in anaesthetised rats. […] Based on a circulating blood volume of 7.2 ± 0.3 ml per 100 g body weight, a mean weight of 345 ± 6 g and hematocrit of 40–60%, the hypothetical maximum plasma concentrations were 23–35 pmol/ml. However, the levels of NT-proET-1, ELDP and CT-proET-1 30 s after injection were 0.29 ± 0.02, 3.65 ± 0.23, and 11.74 ± 0.64 pmol/ml, respectively. Relative to estimates for dilution in circulating blood, these values represent ≈1%, 10–16%, and 34–51% of administered peptide for NT-proET-1, ELDP and CT-proET-1. Moreover, NT-proET-1 was almost completely cleared from the circulation in <5 min (estimated initial t½ < 20 s).
# Figure 5 Comparison of clearance rates of NT-proET-1, ELDP and CT-proET-1 in anaesthetised rats. A bolus dose containing 1 nmol/kg of each proET-1 peptide as a combined solution prepared in 0.9% saline/0.1% BSA was administered i.v. and heparinised arterial blood samples (0.5 ml) were collected at 0.5, 1, 2, 5, 10, 20 and 40 min after administration of proET-1 peptides. NT-proET-1 (mauve circles), ELDP (red circles) and CT-proET-1 (blue circles) were measured by magnetic bead-based multiplex assays using Luminex methodology (values are mean ± SD, except where SD is less than the symbol size).
# A multiplexed immunoassay system was used for simultaneous measurement of NT-proET-1, ELDP and CT-proET-1 in small volumes of rat plasma. Capture antibodies were conjugated to magnetic beads (region 45 – NT-proET-1, region 36 – ELDP, and region 27 – CT-proET-1) following standard protocols (Luminex Corporation). For assay capture antibody-coated magnetic beads were diluted as a premixed combination (10 µl/well) and incubated overnight at 4 °C on an orbital plate mixer with plasma (15 µl) and assay buffer (135 µl). For detection, beads were washed using a ring magnet plate washer before adding 25 µl of combined biotinylated detection antibodies and incubating for 2 h at room temperature on an orbital plate mixer.
# All experiments were conducted according to the Animals (Scientific Procedures) Act 1986, UK, and approved by the UK Home Office. Clearance rates of proET-1 peptides and blood pressure effects of ELDP were determined in male Wistar rats (Charles River) anaesthetised with sodium thiopentone (120 mg/kg i.p.). Peptides were administered i.v. via a polyethylene catheter in the left femoral vein. Blood samples (0.5 ml) were collected from a catheter in the left carotid artery into chilled 1.5 ml microcentrifuge tubes containing 50 U/5 µl of heparin. Samples were centrifuged at 12,000 rpm for 2 min at 4 °C. Plasma (50 µl aliquots) samples were stored at −80 °C for subsequent analyses. Blood pressure and heart rate were recorded from the left carotid artery via a polyethylene catheter using Labchart 7.1 (AD Instruments Ltd).
# [6] = 1 mM phosphoramidon, 4 experiments
# [7] = 1 nmol/kg i.v. bolus, plasma sampled 0.5–40 min, two-phase clearance
compound,measurement,setting,value
CC(C)C[C@H](NP(=O)(O)O[C@@H]1O[C@@H](C)[C@H](O)[C@@H](O)[C@H]1O)C(=O)N[C@@H](Cc1c[nH]c2ccccc12)C(=O)O [phosphoramidon],ET-1 synthesis,[1]; [6],suppressed
same,"proET-1 peptide production (NT-proET-1, ELDP, CT-proET-1)",[1]; [6],no effect
same,increase in big ET-1 compared to basal,"[1]; 1 mM phosphoramidon, confluent human aortic endothelial cells, mean ± SD from 4 experiments",14.9 ± 2.8 fold
TNFα,ET-1 and ELDP in conditioned media,"[1]; TNFα 10 ng/ml, 4 experiments",did not change
same,big ET-1 concentrations,"[1]; TNFα 10 ng/ml, 4 experiments",increased
same,levels of NT-proET-1 and CT-proET-1 in conditioned media,"[1]; TNFα 10 ng/ml, 4 experiments",significantly increased
"ppET-1[110–130]: preproendothelin [110–130] fragment tested in an earlier study (QCASQKDKKCWNFCQAGKELR; UniProt P05305 110-130, looked up, fragment)",cardiovascular effects,[2],failed to show any cardiovascular effects
Apple procyanidin pentamer,"synthesis/secretion of all peptides (ET-1, big ET-1 and proET-1 peptides)","[1]; apple procyanidin pentamer 2.5 or 5 µg/ml, grape seed extract 5 µg/ml, TGFß 1 ng/ml, % basal release, 4 experiments",reduced
Endothelin-1 [ET-1],t½ in the circulation,[3],30 to 60 s
SSEEHLRQTRSETMRNSVKSSFHDPKLKGKPSRERYVTHNRAHW [CT-proET-1],elution position on RP-HPLC (fraction number),[4],28 fraction
same,"estimated t½, phase 1",[5]; [7],0.7 min
same,"estimated t½, phase 2",[5]; [7],7.3 min
same,"plasma level at 30 s as % of administered peptide, relative to estimates for dilution in circulating blood",[5],34–51%
same,level at time molar at 0.5 min,[5],11.7 ± 0.64 nM
APETAVLGAELSAVGENGGEKPTPSPPWRLRRS [NT-proET-1],time to almost complete clearance from the circulation,[5]; 1 nmol/kg i.v. bolus,< 5 min
same,estimated initial t½,"[5]; 1 nmol/kg i.v. bolus, plasma",< 20 s
same,"plasma level at 30 s as % of administered peptide, relative to estimates for dilution in circulating blood",[5],≈ 1%
same,level at time molar at 0.5 min,[5],0.29 ± 0.02 nM
